The record followed here is patent US8003595B2, “Amino acid sequences facilitating penetration of a substance of interest into cells and/or cell nuclei” (Cellectis, priority 2000, dated 2011).

Read-outs that look alike come from different tables or passages of the source. Where no end group is shown, it is not given here.

Series [1] can be described thus: ELISA fixation of biotinylated peptides on sensitized plates. It counts as binding. To be noted: read-out: avidity (Kd), quantity of peptides necessary to obtain 50% fixation, Chondroitin A; Table 5. On the technique in general: In an ELISA, binding on a coated surface is turned into a signal by an enzyme label.
Series [2] relates to gram-positive and gram-negative bacterial strains. Nature of the series: Antibacterial activity of cationic peptides, summary over strains. Conditions: summary of Table 29. It counts as cell-based. As for the experimental part:
The gram-positive bacterial strains are: Enterococcus faecalis (ATCC 29212), and Staphylococcus aureus (ATCC 25923) and the gram-negative strains are: Escherichia coli (ATCC 25922), Pseudomonas aeruginosa (ATCC 27853) and Salmonella typhimurim (clinical isolate), Salmonella typhiTy2 (WHO). The bacteria are cultured with shaking all night at 37° C., then recultured at a dilution of 1:50 in some fresh Luria-Bertani (LB) medium for 2 hours. The bacterial concentration is adjusted to […], and 50 μl is distributed in 96-well plates with an equal volume of peptides diluted half and half (256-0.5 μg/ml) in LB medium. […] To determine the minimum bactericide concentration, 10 μl from each well is spread on gelose plates in LB medium.
However, when peptide HPB13 (SEQ ID NO: 38) is coupled with peptide SEQ ID NO: 24, it enhances its activity by a factor of 50 to 100 (peptide SEQ ID NO: 45). […] None these peptides are active on gram-positive bacteria.

In series [3] the test system is H1299 cells. Nature of the series: Inhibition of peptide-peroxidase internalization by drugs or 4° C. Conditions: peptide-peroxidase 0.2 μg/ml, 2 hours. It counts as cell-based, human. As to the method: To understand the biological mechanisms whereby the peptides penetrate into the cells and their compartmentalization, experiments are done with drugs whose action on certain cell compartments is specific. The peptide-peroxidases were incubated with H1299 cells at a concentration of 0.2 μg/ml for 2 hours in the presence, or not, of a drug. The cells were lysed, and the peroxidase dosed in the cellular lysate.

In a further series the test system is Caco-2 cell monolayers. Nature of the series: Integrity of the Caco-2 barrier model in presence of HBP peptides. Conditions: Table 30; 30 μg/ml, 8 hours in HBSS; three inserts; listed as HBP7.
The subject of series [4] is H1299 cells. Nature of the series: Internalization of covalent peptide-peroxidase conjugates. Format: cell-based, human. To be noted: H1299, 0.2 μg/ml conjugate, 2 hours. The method in brief:
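Peptides coupled via C-terminal cysteine to maleimide-activated peroxidase; uncoupled peptide removed by ultrafiltration. H1299 cells incubated 2 h with increasing conjugate concentrations, washed, lysed; internalized peptide quantified from lysate peroxidase against a conjugate standard curve, as pg/10^3 cells.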

For a further series, the system named is 3T3. The series is described as above. It counts as cell-based, mouse. Conditions: 2 hours. The method, boiled down:
(§1)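 Peptides coupled via C-terminal cysteine to maleimide-activated peroxidase, free peptide removed by ultrafiltration. Cells incubated 2 h with 0.2 μg/ml conjugate; peroxidase dosed in lysates, expressed as pg/10^3 cells.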

The nature of series [5]: ELISA fixation of biotinylated peptides on sensitized plates. It counts as binding. To be noted: read-out: avidity (Kd), quantity of peptides necessary to obtain 50% fixation, Chondroitin B; Table 5.
Test in series [6]: as above
Format: binding. To be noted: read-out: avidity (Kd), quantity of peptides necessary to obtain 50% fixation, Heparin; Table 5. As for the experimental part: The capacity of peptides SEQ ID NO: 1 to 21 to attach themselves to DNA and heparin is evaluated on ELISA plates sensitized with DNA or heparin. Dilutions of biotinylated peptides are deposited on the plates and their fixation is shown using streptavidin conjugated with peroxidase. […] The avidity of each of the peptides for DNA or heparin is evaluated by the quantity (×10^−6 M) of peptides necessary to obtain 50% fixation.

Test in series [7]: as above
It counts as binding. To be noted: read-out: avidity (Kd), quantity of peptides necessary to obtain 50% fixation, Chondroitin C; Table 5.

For a further series, the system named is HeLa. Nature of the series: Internalization of covalent peptide-peroxidase conjugates. To be noted: 2 hours. It counts as cell-based, human. The method in brief:
as §1

Description for Caco-2 cell monolayers: Caco-2 cells were seeded at a density of 160000 cells/cm^2 on a polyethylene terephtalate microporous membranes, previously coated with bovine dermal collagen, in a synthetic serum-free medium (Basal Defined Medium, BDM). Culture medium was changed three times a week and cells were maintained at 37° C. in a an atmosphere of 5% CO2 for 18 days. As a negative control to check the integrity of the Caco-2 barrier, 10^6 dpm/ml D-[^14C]-mannitol was used. […] Other controls included D-[^14C]-mannitol/L-[^3H]-Proline+HBP7 30 μg/ml and D-[^14C]-mannitol/L-[^3H]-proline+HBP10 30 μg/ml.
Trans-epithelial transport experiments were carried out. The trans-epithelial electrical resistance (TEER) was measured to check the integrity of the Caco-2 cell monolayers. The cell monolayers were preincubated in Hanks' balanced salt solution (HBSS, 5 mM glucose, supplemented with 10 mM Hepes) for 8 hours at 37° C. At 1, 2, 4 and 8 hours, 100 μl of medium was collected from the lower compartment and replaced by fresh HBSS. At the end of the experiment (8 hours), the cell monolayers were washed three times with PBS and TEER was measured.

For GKRKKKGKLGKKRDP [SEQ ID NO: 30], the Kd in series [1] came out at 0.078 µM; in series [5] it was 0.058 µM; in series [6], 0.054 µM; in [7] it was 0.019 µM. For the same sequence, in [2], the “bactericide / anti-microbial activity” value is listed as “no anti-microbial activity”. Further, the “percentage inhibition of peptide internalization” value in the series with H1299 cells [3] (Ammonium chloride (50 mM)) is 70%; in the series with H1299 cells [3] (Chloroquin (100 μM)), 79%; in the series with H1299 cells [3] (Genistein (200 μM)), 68%; with H1299 cells [3] (Sodium chloride (80 mM)) it was 69%; in the series with H1299 cells [3] (Temperature (4° C.)) it was 100%. In addition, the TEER after incubation in the series on Caco-2 cell monolayers was 145 Ω · cm^2. For the same sequence, the “Internalization of Peptide-peroxidase” value in the series with H1299 cells [4] (Table 9) was 22.5 pg/10^3 cells; in the series on H1299 cells [4] (Table 9B), 63.3 pg/10^3 cells; with 3T3 (Table 9, 0.2 μg/ml conjugate), 48.8 pg/10^3 cells; in the series with 3T3 (Table 9B, 0.2 μg/ml conjugate), 44.2 pg/10^3 cells; in the series on HeLa (Table 9, 0.2 μg/ml conjugate), 11 pg/10^3 cells; in the series on HeLa (Table 9B, 0.2 μg/ml conjugate), 3.6 pg/10^3 cells.
